Measurements reported in PubChem BioAssay AID2060494 (Molecular Pharmacology Branch, DTP, NCI, 2025).

Tested on: 435261-313-R-J1-PDC complex spheroid viability
Assay: Anticancer human tumor 435261-313-R-J1-PDC patient-derived colon adenocarcinoma cell line growth inhibition [GQUAD]
Settings: for IC50: curve of first compound; for viability, T/C: stronger effect = lower value
Description: DNA G-quadruplex Stabilizer Agents in Combinations in Complex Spheroids
A high-throughput screen of multi-cell type tumor spheroids was designed to identify active combinations of DNA G-quadruplex stabilizer agents and targeted small molecules. Complex spheroids include a stromal component modeled by human endothelial cells (HUVEC) and fibroblasts modeled by human mesenchymal stem cells (MSCs). The concentration ranges selected for each drug and investigational agent were based upon clinically achievable concentrations if the clinical Cmax of the agent was known.
Compounds. The drugs and investigational agents: pidnarulex (CX-5461; NSC782164), APTO-253 (NSC789042), BRACO-19 (NSC847499), peposertib (NSC802822), ceralasertib (NSC780249), elimusertib (NSC800525), camonsertib (NSC841442), AZD-1390 (NSC803789), olaparib (NSC753686), talazoparib (NSC767125), ART-558 (NSC835418), sotorasib (NSC818433), MRTX-1133 (NSC836407), SN-38 (NSC673596), topotecan (NSC609699), etoposide (NSC141540), doxorubicin (NSC123127), gemcitabine (NSC613327), 5-fluorouracil (NSC19893), paclitaxel (NSC125973), vemurafenib (NSC761431), panobinostat (NSC761190), R-306465 (JNJ-16241199; NSC773264), adavosertib (NSC754352), TP-3654 (NSC805149), carboplatin (NSC241240), KSQ-4279 (NSC840948), and staurosporine (NSC755774) were obtained from the National Cancer Institute (NCI) Developmental Therapeutics Program Chemical Repository (34). The FDA-approved anticancer drug set is available from the NCI Developmental Therapeutics Program. […] The stock solutions were prepared in dimethyl sulfoxide (DMSO, Sigma-Aldrich, St. Louis, MO, cat. D2650) at 800-fold the tested concentration and stored at -70 degrees C prior to their use. All drugs and investigational agents were tested over a range starting from a high concentration at or near the clinical Cmax and decreasing in half-log increments. If the clinical Cmax for an agent had not been determined, the highest concentration tested was 10 microM.
2.3 Cell Culture. All cells were maintained in an incubator at 37 degrees C and 5% CO2 with 95% humidity. The PDC lines were cultured according to standard operating procedures established by the NCI PDMR. All PDCs were thawed and cultured in Matrigel-coated flasks prepared with a working solution of 1X Ham's F-12 nutrient mix, without supplementation (Invitrogen, cat. 11765054), 100 U/mL penicillin-streptomycin (Invitrogen, cat. 15140122), and 2.5% Matrigel (Corning Inc., cat. 354248) for the first three passages. The 857933-349-R-J2-PDC line was cultured in 6C/Colon 1B media, which includes advanced DMEM/F-12 (Thermo Fisher Scientific, cat. 12634028), 10 mM HEPES (Thermo Fisher Scientific, cat. 15630080), 1X GlutaMAX supplement (Thermo Fisher Scientific, cat. 35050061), 0.1 mg/mL primocin (InvivoGen, cat. ant-pm-2), 10% defined fetal bovine serum, heat inactivated (HyClone Laboratories Inc., cat. SH30070.03HI), 50% L-WRN conditioned media (ATCC, cat. CRL-3276), 1.25 mM N-Acetyl-L-cysteine (Sigma-Aldrich, cat. A9165), 10 mM nicotinamide (Sigma-Aldrich, cat. N0636), 1X B-27 supplement (Thermo Fisher Scientific, cat. 17504044), 1X N-2 supplement (Thermo Fisher Scientific, cat. 17502048), 10 microM Y-27632 dihydrochloride (Tocris Bioscience, cat. 1254), and 50 ng/mL human EGF recombinant protein (Thermo Fisher Scientific, cat. PHG0311). The 485176-168-R4-J1-PDC line was cultured in Panc media, which includes all 6C/Colon 1B media components plus 100 ng/mL human FGF-10 (Thermo Fisher Scientific, cat. 100-26), 500 nM SB-431542 (Selleckchem, cat. S1067), and gastrin (Tocris, cat. 3006).
[…]
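Further: spheroids exposed to the agents for seven days before readout.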
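Wherever viability, T/C is given: percent of vehicle control viability with DMSO wells as 100%.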

- IC50 (second compound 0.0316 µM): > 10 µM
- IC50 (second compound 0.1 µM): > 10 µM
- IC50 (second compound 0.316 µM): > 10 µM
- IC50 (second compound 1 µM): < 0.0316 µM
- IC50 (second compound 3.16 µM): < 0.0316 µM
- IC50 (second compound 10 µM): < 0.0316 µM
SMILES: O=C(c1cc(Cc2n[nH]c(=O)c3ccccc23)ccc1F)N1CCN(C(=O)C2CC2)CC1 + Cc1cnc(CNC(=O)c2c(=O)c3ccc(N4CCCN(C)CC4)nc3n3c2sc2ccccc23)cn1
- viability, T/C (second compound 0.0316 µM, first compound 0.0316 µM): 76%
- viability, T/C (second compound 0.0316 µM, first compound 0.1 µM): 60.9%
- viability, T/C (second compound 0.0316 µM, first compound 0.316 µM): 66.3%
- viability, T/C (second compound 0.0316 µM, first compound 1 µM): 68.2%
- viability, T/C (second compound 0.0316 µM, first compound 3.16 µM): 84%
- viability, T/C (second compound 0.0316 µM, first compound 10 µM): 77.7%
- viability, T/C (second compound 0.1 µM, first compound 0.0316 µM): 65.2%
- viability, T/C (second compound 0.1 µM, first compound 0.1 µM): 65.1%
- viability, T/C (second compound 0.1 µM, first compound 0.316 µM): 58.3%
- viability, T/C (second compound 0.1 µM, first compound 1 µM): 62%
- viability, T/C (second compound 0.1 µM, first compound 3.16 µM): 64%
- viability, T/C (second compound 0.1 µM, first compound 10 µM): 62.1%
- viability, T/C (second compound 0.316 µM, first compound 0.0316 µM): 59.4%
- viability, T/C (second compound 0.316 µM, first compound 0.1 µM): 53.8%
- viability, T/C (second compound 0.316 µM, first compound 0.316 µM): 58.7%
- viability, T/C (second compound 0.316 µM, first compound 1 µM): 59.6%
- viability, T/C (second compound 0.316 µM, first compound 3.16 µM): 53%
- viability, T/C (second compound 0.316 µM, first compound 10 µM): 52.2%
- viability, T/C (second compound 1 µM, first compound 0.0316 µM): 38.6%
- viability, T/C (second compound 1 µM, first compound 0.1 µM): 45.9%
- viability, T/C (second compound 1 µM, first compound 0.316 µM): 38.1%
- viability, T/C (second compound 1 µM, first compound 1 µM): 42.7%
- viability, T/C (second compound 1 µM, first compound 3.16 µM): 55.9%
- viability, T/C (second compound 1 µM, first compound 10 µM): 37.6%
- viability, T/C (second compound 3.16 µM, first compound 0.0316 µM): 26.4%
- viability, T/C (second compound 3.16 µM, first compound 0.1 µM): 9.89%
- viability, T/C (second compound 3.16 µM, first compound 0.316 µM): 25.5%
- viability, T/C (second compound 3.16 µM, first compound 1 µM): 15.3%
- viability, T/C (second compound 3.16 µM, first compound 3.16 µM): 27.3%
- viability, T/C (second compound 3.16 µM, first compound 10 µM): 20.5%
- viability, T/C (second compound 10 µM, first compound 0.0316 µM): 0.23%
- viability, T/C (second compound 10 µM, first compound 0.1 µM): 0.23%
- viability, T/C (second compound 10 µM, first compound 0.316 µM): 0.21%
- viability, T/C (second compound 10 µM, first compound 1 µM): 0.23%
- viability, T/C (second compound 10 µM, first compound 3.16 µM): 0.22%
- viability, T/C (second compound 10 µM, first compound 10 µM): 0.23%
